Experimental data: patent US20260365670A1, “EGFR INHIBITORS AND USES THEREOF” (DIZAL (JIANGSU) PHARMACEUTICAL CO., LTD., priority 2022, published 2026)
Read-outs that look alike come from different tables or passages of the source.

How the values were obtained:
[1] = target: T1, EGFR wild type (Homo sapiens, UniProt P00533); experiment: Inhibition of EGFR wild type biochemical enzymatic activity (HTRF); settings: EGFR wild type, 1 mM ATP, 1 h at room temperature, read-out: IC50 @WT
T1 construct: purchased Carna Bio
Procedure, shortened: (§1)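 For IC50 determination by four-parameter logistic fit, EDTA-quenched 1 h room-temperature reactions (1 mM ATP, 1 μM TK Substrate-biotin) were read by HTRF. The 665/615 nm emission ratio after 320 nm excitation served as the activity signal.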

[2] = target: T2, EGFR Exon19Del/T790M (Homo sapiens, UniProt P00533, DEL746-750/T790M); experiment: Inhibition of EGFR Exon19Del/T790M biochemical enzymatic activity (HTRF); settings: EGFR Exon19Del/T790M, 1 mM ATP, 1 h at room temperature, read-out: IC50 @Del19-T790M
T2 construct: purchased Carna Bio
Procedure, shortened: as §1

[3] = target: T3, EGFR L858R (Homo sapiens, UniProt P00533, L858R); experiment: Inhibition of EGFR L858R biochemical enzymatic activity (HTRF); settings: 1 mM ATP, 1 h at room temperature, read-out: IC50 @L858R
T3 construct: purchased Carna Bio
Procedure, shortened: as §1

[4] = target: T4, EGFR (d746-750 C797S) (Homo sapiens, UniProt P00533, C797S/DEL746-750); experiment: Inhibition of EGFR (d746-750 C797S) biochemical enzymatic activity (HTRF); settings: EGFR (d746-750 C797S), 1 mM ATP, 1 h at room temperature, read-out: IC50 @Del19-C797S
T4 construct: purchased signalchem
Procedure, shortened: as §1

[5] = target: T5, EGFR[T790M/C797S/d746-750] (Homo sapiens, UniProt P00533, C797S/DEL746-750/T790M); experiment: Inhibition of EGFR[T790M/C797S/d746-750] biochemical enzymatic activity (HTRF); settings: EGFR[T790M/C797S/d746-750], 1 mM ATP, 1 h at room temperature, read-out: IC50 @T790M - C797S - Del19
T5 construct: purchased Carna Bio
Procedure, shortened: as §1

[6] = system: Ba/F3 cells expressing EGFR mutations; experiment: Cell proliferation assay, Ba/F3 cells expressing EGFR mutations (CellTiter-Glo, 72 hours); format: cell-based
Procedure, shortened: (§2)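 Cells are exposed to graded compound concentrations after overnight plating, using 500 PC-9 or 5000 Ba/F3 per well. Baseline-subtracted viability is compared with vehicle to give percent proliferation, then GI50.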

[7] = system: A-431; experiment: Cell proliferation assay, A-431 cells (GI50, Table 6); format: cell-based
[8] = target: T6, EGFR L858R/T790M (Homo sapiens, UniProt P00533, L858R/T790M); experiment: Inhibition of EGFR L858R/T790M biochemical enzymatic activity (HTRF); settings: EGFR L858R/T790M, 1 mM ATP, 1 h at room temperature, read-out: IC50 @L858R-T790M
T6 construct: purchased Carna Bio
Procedure, shortened: as §1

[9] = target: T7, EGFR[T790M/C797S/L858R] (Homo sapiens, UniProt P00533, C797S/L858R/T790M); experiment: Inhibition of EGFR[T790M/C797S/L858R] biochemical enzymatic activity (HTRF); settings: EGFR[T790M/C797S/L858R], 1 mM ATP, 1 h at room temperature, read-out: IC50 @T790M- C797S - L858R
T7 construct: purchased Carna Bio
Procedure, shortened: as §1

[10] = system: PC-9; experiment: Cell proliferation assay, PC-9 cells (CellTiter-Glo, 72 hours); format: cell-based; settings: PC9 cells, read-out: GI50 PC9
Procedure, shortened: as §2

[11] = target: T8, EGFR Exon19Del (Homo sapiens, UniProt P00533, DEL746-750); experiment: Inhibition of EGFR Exon19Del biochemical enzymatic activity (HTRF); settings: EGFR Exon19Del, 1 mM ATP, 1 h at room temperature, read-out: IC50 @Del19
T8 construct: purchased Carna Bio
Procedure, shortened: as §1

[12] = target: T9, EGFR (C797S L858R) (Homo sapiens, UniProt P00533, C797S/L858R); experiment: Inhibition of EGFR (C797S L858R) biochemical enzymatic activity (HTRF); settings: EGFR (C797S L858R), 1 mM ATP, 1 h at room temperature, read-out: IC50 @L858-C797S
T9 construct: purchased signalchem
Procedure, shortened: as §1

[13] = BaF3 cells, EGFR DEL19 - C797S, read-out: GI50 DEL19 - C797S/BaF3
[14] = BaF3 cells, EGFR DEL19 - T790-C797S, read-out: GI50 DEL19 - T790-C797S/BaF3
[15] = BaF3 cells, EGFR L858R - T790-C797S, read-out: GI50 L858R - T790-C797S/BaF3
[16] = BaF3 cells, EGFR L858R, read-out: GI50 L858R/BaF3
[17] = EGFR DEL19 - T790M, read-out: GI50 DEL19 - T790M
[18] = Homo sapiens, A-431, A-431 cells

T1 sequence (P00533 25-1210): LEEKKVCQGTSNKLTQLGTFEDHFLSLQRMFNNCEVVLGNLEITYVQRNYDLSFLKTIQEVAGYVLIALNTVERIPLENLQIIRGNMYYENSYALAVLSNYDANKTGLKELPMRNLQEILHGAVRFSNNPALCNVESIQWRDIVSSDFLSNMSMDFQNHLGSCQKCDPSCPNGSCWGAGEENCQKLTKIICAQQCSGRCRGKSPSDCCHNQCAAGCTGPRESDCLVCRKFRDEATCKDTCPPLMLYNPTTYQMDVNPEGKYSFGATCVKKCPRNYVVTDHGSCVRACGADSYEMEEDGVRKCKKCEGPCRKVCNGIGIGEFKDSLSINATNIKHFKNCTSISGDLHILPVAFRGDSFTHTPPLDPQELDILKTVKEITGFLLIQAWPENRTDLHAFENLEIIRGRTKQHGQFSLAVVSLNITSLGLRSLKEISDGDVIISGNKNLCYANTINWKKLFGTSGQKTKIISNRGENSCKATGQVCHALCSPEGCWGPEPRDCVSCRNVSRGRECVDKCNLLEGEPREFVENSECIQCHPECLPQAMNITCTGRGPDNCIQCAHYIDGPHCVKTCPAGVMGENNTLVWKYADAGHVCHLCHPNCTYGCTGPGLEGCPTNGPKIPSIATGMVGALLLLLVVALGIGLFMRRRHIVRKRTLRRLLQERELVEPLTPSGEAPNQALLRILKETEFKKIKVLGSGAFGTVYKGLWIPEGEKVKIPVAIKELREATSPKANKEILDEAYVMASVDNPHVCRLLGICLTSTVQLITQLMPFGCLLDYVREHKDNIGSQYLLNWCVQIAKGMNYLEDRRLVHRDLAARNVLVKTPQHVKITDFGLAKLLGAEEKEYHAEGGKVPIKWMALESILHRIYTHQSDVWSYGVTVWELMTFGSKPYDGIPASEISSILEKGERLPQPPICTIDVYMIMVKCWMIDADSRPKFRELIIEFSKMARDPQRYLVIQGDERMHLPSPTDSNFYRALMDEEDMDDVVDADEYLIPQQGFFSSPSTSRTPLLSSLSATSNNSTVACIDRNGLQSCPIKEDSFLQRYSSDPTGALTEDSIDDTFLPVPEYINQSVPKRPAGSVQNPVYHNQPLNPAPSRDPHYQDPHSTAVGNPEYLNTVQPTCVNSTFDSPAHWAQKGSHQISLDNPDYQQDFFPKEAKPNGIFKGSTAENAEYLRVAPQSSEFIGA
T4 sequence (P00533 with tags, fused parts or gaps DEL746-750/C797S limits assumed): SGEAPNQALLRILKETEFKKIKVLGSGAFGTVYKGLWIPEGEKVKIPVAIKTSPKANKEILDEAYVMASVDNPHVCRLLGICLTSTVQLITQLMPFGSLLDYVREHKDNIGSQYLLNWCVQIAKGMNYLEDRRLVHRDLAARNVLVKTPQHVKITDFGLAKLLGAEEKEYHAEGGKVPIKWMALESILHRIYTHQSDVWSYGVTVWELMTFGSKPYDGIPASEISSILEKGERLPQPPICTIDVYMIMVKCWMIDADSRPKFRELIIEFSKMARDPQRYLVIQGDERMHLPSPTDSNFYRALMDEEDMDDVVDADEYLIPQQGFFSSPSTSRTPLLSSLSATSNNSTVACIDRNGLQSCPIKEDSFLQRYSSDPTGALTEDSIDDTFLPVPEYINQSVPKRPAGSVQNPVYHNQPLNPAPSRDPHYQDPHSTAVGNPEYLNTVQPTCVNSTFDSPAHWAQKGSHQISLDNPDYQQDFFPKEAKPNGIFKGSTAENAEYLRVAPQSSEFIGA
T7 sequence (P00533 25-1210 T790M/C797S/L858R): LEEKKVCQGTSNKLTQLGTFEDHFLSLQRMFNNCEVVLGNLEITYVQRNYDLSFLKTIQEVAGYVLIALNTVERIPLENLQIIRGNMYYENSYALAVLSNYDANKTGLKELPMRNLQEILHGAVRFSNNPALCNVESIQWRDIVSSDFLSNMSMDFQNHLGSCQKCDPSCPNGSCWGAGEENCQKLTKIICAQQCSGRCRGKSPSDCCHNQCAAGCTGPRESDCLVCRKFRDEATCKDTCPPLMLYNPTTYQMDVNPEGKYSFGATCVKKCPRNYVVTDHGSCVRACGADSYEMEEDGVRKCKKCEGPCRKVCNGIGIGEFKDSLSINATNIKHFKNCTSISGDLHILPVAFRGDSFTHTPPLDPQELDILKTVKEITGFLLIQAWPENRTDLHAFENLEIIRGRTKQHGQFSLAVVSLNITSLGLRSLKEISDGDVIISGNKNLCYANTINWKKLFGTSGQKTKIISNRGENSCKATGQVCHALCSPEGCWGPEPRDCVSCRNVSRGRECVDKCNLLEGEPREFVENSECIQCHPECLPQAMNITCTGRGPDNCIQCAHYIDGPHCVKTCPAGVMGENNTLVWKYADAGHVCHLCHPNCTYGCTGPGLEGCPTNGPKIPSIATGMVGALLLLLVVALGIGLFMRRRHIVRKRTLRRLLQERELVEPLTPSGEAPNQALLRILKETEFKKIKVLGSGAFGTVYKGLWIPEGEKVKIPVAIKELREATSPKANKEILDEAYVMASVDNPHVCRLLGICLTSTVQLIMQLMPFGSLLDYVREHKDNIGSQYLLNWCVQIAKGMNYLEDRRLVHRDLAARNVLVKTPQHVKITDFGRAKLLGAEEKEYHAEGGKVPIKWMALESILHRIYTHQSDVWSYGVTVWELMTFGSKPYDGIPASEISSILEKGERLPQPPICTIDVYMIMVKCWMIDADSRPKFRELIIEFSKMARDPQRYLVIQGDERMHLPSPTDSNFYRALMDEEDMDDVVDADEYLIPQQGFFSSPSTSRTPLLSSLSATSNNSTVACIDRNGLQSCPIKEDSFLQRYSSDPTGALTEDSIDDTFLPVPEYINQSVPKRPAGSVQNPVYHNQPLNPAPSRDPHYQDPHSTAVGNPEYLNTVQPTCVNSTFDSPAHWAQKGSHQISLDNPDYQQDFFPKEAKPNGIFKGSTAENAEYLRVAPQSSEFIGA
T2 sequence (P00533 with tags, fused parts or gaps DEL746-750/T790M limits assumed): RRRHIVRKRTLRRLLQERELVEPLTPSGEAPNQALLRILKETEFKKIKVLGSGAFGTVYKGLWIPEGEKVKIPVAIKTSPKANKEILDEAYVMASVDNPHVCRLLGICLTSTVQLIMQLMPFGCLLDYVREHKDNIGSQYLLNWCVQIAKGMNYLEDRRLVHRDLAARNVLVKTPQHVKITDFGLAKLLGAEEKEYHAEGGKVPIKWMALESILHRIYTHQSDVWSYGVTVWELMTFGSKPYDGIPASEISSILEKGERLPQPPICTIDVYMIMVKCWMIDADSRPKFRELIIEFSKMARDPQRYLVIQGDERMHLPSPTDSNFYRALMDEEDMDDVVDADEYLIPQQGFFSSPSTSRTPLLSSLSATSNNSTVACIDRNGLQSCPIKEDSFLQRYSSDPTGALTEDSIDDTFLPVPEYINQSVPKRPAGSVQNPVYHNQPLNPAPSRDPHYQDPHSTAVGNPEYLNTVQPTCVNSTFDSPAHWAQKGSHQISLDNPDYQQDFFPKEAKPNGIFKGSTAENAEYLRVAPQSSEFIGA
T5 sequence (P00533 with tags, fused parts or gaps DEL746-750/T790M/C797S limits assumed): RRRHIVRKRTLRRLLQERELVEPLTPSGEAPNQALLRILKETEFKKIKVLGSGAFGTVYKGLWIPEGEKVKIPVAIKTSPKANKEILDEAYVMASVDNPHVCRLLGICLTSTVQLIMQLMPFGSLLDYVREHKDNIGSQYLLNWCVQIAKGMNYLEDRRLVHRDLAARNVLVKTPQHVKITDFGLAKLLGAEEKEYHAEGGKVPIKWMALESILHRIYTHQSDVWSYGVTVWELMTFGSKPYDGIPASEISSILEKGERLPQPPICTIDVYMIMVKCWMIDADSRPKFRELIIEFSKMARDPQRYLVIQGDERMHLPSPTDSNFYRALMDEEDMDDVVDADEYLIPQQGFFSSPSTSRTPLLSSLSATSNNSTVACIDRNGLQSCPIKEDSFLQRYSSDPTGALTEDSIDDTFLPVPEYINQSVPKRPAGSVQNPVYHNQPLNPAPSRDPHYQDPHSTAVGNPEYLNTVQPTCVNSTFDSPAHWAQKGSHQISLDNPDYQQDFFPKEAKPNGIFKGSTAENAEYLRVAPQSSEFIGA
T8 sequence (P00533 with tags, fused parts or gaps DEL746-750 limits assumed): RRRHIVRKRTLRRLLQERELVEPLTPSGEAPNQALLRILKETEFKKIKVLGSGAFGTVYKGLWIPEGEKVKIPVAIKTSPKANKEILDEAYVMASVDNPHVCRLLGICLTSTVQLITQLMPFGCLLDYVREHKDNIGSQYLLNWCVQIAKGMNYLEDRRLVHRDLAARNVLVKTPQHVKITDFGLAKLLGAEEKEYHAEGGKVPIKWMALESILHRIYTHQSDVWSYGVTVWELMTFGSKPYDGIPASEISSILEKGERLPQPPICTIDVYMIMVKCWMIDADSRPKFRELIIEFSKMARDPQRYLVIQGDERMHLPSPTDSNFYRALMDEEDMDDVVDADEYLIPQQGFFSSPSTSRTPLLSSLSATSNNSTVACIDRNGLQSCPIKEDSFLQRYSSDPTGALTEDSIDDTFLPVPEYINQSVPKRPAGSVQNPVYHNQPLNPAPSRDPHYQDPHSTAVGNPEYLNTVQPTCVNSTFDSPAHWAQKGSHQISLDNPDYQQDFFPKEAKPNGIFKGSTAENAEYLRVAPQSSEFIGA

COCCN(C)c1ccc2nc3n(c2c1)C12CCC(CN(CCOc4c(cnn4C)-c4cc(cc(C)n4)C(=O)N3)C1)C2 (single isomer, unassigned) [Example B46B]
IC50 [1]: > 5000 nM | IC50 [2]: 7.2 nM | IC50 [3]: 377 nM | IC50 [4]: 7.5 nM | IC50 [5]: 3.7 nM | GI50 [6, 13]: 2 nM | GI50 [6, 14]: 2 nM | GI50 [6, 15]: 2 nM | GI50 [6, 16]: 36 nM | GI50 [6, 17]: 2 nM | GI50 ([7]; A-431 cells): 1360 nM | IC50 [8]: 12 nM | IC50 [9]: 4.7 nM | GI50 [10]: 25 nM | IC50 [11]: 28 nM | IC50 [12]: 117 nM

Cc1cc2cc(n1)-c1cnn(C)c1OCCN1CC3CCC(C3)(C1)n1c(nc3ccc(N(C)CCN(C)C)cc31)NC2=O (single isomer, unassigned) [Example B47B]
IC50 [1]: 805 nM | IC50 [2]: 2.8 nM | IC50 [3]: 59 nM | IC50 [4]: 2.8 nM | IC50 [5]: 1.9 nM | GI50 [6, 13]: 2 nM | GI50 [6, 14]: 2 nM | GI50 ([6]; BaF3 cells, EGFR L858R - C797S, read-out: GI50 L858R - C797S/BaF3): 9 nM | GI50 [6, 15]: 2 nM | GI50 ([6]; BaF3 cells, EGFR L858R - T790M, read-out: GI50 L858R - T790M/BaF3): 2 nM | GI50 [6, 16]: 11 nM | GI50 [6, 17]: 2 nM | GI50 [7, 18]: 378 nM | IC50 [8]: 3.5 nM | IC50 [9]: 1.5 nM | GI50 [10]: 12 nM | IC50 [11]: 5.8 nM | IC50 [12]: 14 nM

Cc1cc2cc(n1)-c1cnn(C)c1OCCN1CC3CCC(CC3)(C1)n1c(nc3ccc(N(C)CCN(C)C)cc31)NC2=O [Example B32]
IC50 [1]: > 5000 nM | IC50 [2]: 6.6 nM | IC50 [3]: 197 nM | IC50 [4]: 13 nM | IC50 [5]: 2.3 nM | GI50 ([6]; Mus musculus, BaF3, 72 h, BaF3 cells, EGFR DEL19 - C797S, read-out: GI50 DEL19 - C797S/BaF3): 11 nM | GI50 ([6]; Mus musculus, BaF3, 72 h, BaF3 cells, EGFR DEL19 - T790-C797S, read-out: GI50 DEL19 - T790-C797S/BaF3): 3 nM | GI50 ([6]; Mus musculus, BaF3, 72 h, BaF3 cells, EGFR L858R - C797S, read-out: GI50 L858R - C797S/BaF3): 78 nM | GI50 ([6]; Mus musculus, BaF3, 72 h, BaF3 cells, EGFR L858R - T790-C797S, read-out: GI50 L858R - T790-C797S/BaF3): 7 nM | GI50 ([6]; Mus musculus, BaF3, 72 h, BaF3 cells, EGFR L858R - T790M, read-out: GI50 L858R - T790M/BaF3): 20 nM | GI50 ([6]; Mus musculus, BaF3, 72 h, BaF3 cells, EGFR L858R, read-out: GI50 L858R/BaF3): 64 nM | GI50 ([6]; Mus musculus, BaF3, 72 h, EGFR DEL19 - T790M, read-out: GI50 DEL19 - T790M): 4 nM | GI50 [7, 18]: 7410 nM | IC50 [8]: 11 nM | IC50 [9]: 3.9 nM | GI50 ([10]; Homo sapiens, PC-9, 72 h): 81 nM | IC50 [11]: 17 nM | IC50 [12]: 117 nM
